Reference: patent publication US11365195B2, “Atypical inhibitors of monoamine transporters; method of making; and use thereof” (THE UNITED STATES OF AMERICA, AS REPRESENTED BY THE …, priority 2017, dated 2022)
Read-outs that look alike come from different tables or passages of the source.

What was measured:
[1] = molecular target: T1, SERT (Rattus norvegicus, UniProt P31652); assay: SERT radioligand binding in rat midbrain ([3H]-Citalopram competition); conditions: rat midbrain/brain stem membranes, [3H]-Citalopram, mean ± SEM; read-out: SERT (rat mid-brain-stem) Ki ± SEM
T1 construct: 100 μl of tissue preparation (2 mg of brain stem membranes per well); tissue Bioreclamation IVT (Hicksville, N.Y.); host or cells: male Sprague-Dawley rat brain stem membranes
Experimental: (§1) Binding affinities of the analogue compounds were evaluated at the DAT and SERT in rat brain membranes, and sigma-1 in guinea pig brain membranes according to the following protocols.
SERT Radioligand Binding in Rat Midbrain
(§2) The tissue was centrifuged at 20,000 rpm for 10 min at 4° C. The pellet was suspended in cold buffer and centrifuged again using the same settings. The resulting pellet was resuspended in cold buffer at a concentration of 20 mg/mL OWW (original wet weight). On test day, all test compounds were freshly dissolved in 30% DMSO and 70% H2O to a stock concentration of 1 mM or 100 μM. When necessary, to assist the solubilization of compounds, 10 μl of glacial acetic acid was added along with the DMSO (in place of 10 μl final H2O volume). Each test compound was then diluted into 10 half-log serial dilutions using 30% DMSO vehicle. […] Non-specific binding was determined using 10 μL Fluoxetine HCl and total binding was determined with 30% DMSO vehicle. The reaction was started with the addition of the tissue. All compound dilutions were tested in triplicate and the reaction incubated for 60 min at room temperature. The reaction was terminated by filtration through Perkin Elmer Uni-Filter-96 GF/B, presoaked for 60 min in 0.3% polyethylenimine, using a Brandel 96-Well Plates Harvester Manifold (Brandel Instruments, Gaithersburg, Md.). The filters were washed 3 times with 3 mL (3×1 mL/well) of ice cold binding buffer. […] These analyses were performed using GraphPad Prism version 6.00 for Macintosh (GraphPad Software, San Diego, Calif.).

[2] = molecular target: T2, DAT (Rattus norvegicus, UniProt P23977); assay: DAT radioligand binding in rat striatum ([3H]-WIN35,428 competition); conditions: for SERT/DAT: ratio of SERT Ki to DAT Ki
T2 construct: 100 μl of tissue preparation (1.5 mg of brain striatum membranes per well); tissue Bioreclamation IVT (Hicksville, N.Y.); host or cells: male Sprague-Dawley rat brain striatum membranes
Experimental: as §1
DAT Radioligand Binding in Rat Striatum
as §2, with “of 15” for “of 20”, “100 μM” for “100 μM.”, “[…] Indatraline” for “μL Fluoxetine HCl”, “tissue. […]” for “tissue. All compound dilutions were tested in triplicate and the reaction incubated for 60 min at room temperature. The reaction was terminated by filtration through Perkin Elmer Uni-Filter-96 GF/B, presoaked for 60 min in 0.3% polyethylenimine, using a Brandel 96-Well Plates Harvester Manifold (Brandel Instruments, Gaithersburg, Md.).”

[3] = molecular target: T3, σ1R (Cavia porcellus, UniProt Q60492); assay: σ1R radioligand binding in guinea pig cortex ([3H]-(+)-Pentazocine competition); conditions: for σ1/DAT: ratio of σ1 to DAT affinity values; for σ1/SERT: ratio of σ1 to SERT affinity values
T3 construct: tissue BioReclamation IVT (Hicksville, N.Y.); host or cells: male Hartley guinea pig brain cortex membranes
Experimental: as §1
σ1R Radioligand Binding in Guinea Pig Cortex
Male Hartley guinea pig cortices were dissected from freshly harvested brains (shipped cold in PBS buffer from BioReclamation IVT (Hicksville, N.Y.)) and frozen at −80° C. for future use. […] The supernatant was collected in a clean tube and the pellet re-suspended in 10 ml of cold buffer and centrifuged again (˜1,200 rpm) for 10 min at 4° C. […] The final pellet was suspended in ice-cold binding buffer at 50 mg/ml concentration. […] All test compounds were freshly dissolved in 30% DMSO and 70% H2O to a stock concentration of 1 mM or 100 μM. When necessary, to assist the solubilization of compounds, 10 μl of glacial acetic acid was added along with the DMSO (in place of 10 μl final H2O volume). Each test compound was then diluted into 10 half-log serial dilutions using 30% DMSO as the vehicle. […] Nonspecific binding was determined using either 10 μM PRE084 or 10 μM (+)-Pentazocine and total binding was determined with 30% DMSO vehicle (3% DMSO final concentration). […] The filters were washed 3 times with 3 ml (3×1 ml/well) of ice cold binding buffer.

[4] = Phase I metabolic stability in rat liver microsomes; format: in vitro ADME; conditions: for Phase I in Liver Microsomes, Negative Control: rat liver microsomes lacking NADPH; for Phase I in Liver Microsomes, Rat: with NADPH, 10 μM compound, 0.5 mg/mL microsomes; for stability to Phase I metabolism (in words): rat liver microsomes fortified with NADPH
Experimental: Methods: Phase I metabolic stability assays were conducted in rat liver microsomes. For phase I metabolism, the reactions were carried out with 100 mM potassium phosphate buffer, pH 7.4, in the presence of NADPH regenerating system (1.3 mM NADPH, 3.3 mM glucose 6-phosphate, 3.3 mM MgCl2, 0.4 U/mL glucose-6-phosphate dehydrogenase, […] sodium citrate). Reactions in triplicate were initiated by addition of the liver microsomes to the incubation mixture (compound final concentration was 10 μM; 0.5 mg/mL microsomes). Compound disappearance was monitored via LC/MS/MS. […] The total run time for each analyte was 5.0 min.

[5] = rat striatum membranes, [3H]-WIN35,428, mean ± SEM, read-out: DAT (rat striatum) Ki ± SEM

T1 sequence (P31652 whole entry): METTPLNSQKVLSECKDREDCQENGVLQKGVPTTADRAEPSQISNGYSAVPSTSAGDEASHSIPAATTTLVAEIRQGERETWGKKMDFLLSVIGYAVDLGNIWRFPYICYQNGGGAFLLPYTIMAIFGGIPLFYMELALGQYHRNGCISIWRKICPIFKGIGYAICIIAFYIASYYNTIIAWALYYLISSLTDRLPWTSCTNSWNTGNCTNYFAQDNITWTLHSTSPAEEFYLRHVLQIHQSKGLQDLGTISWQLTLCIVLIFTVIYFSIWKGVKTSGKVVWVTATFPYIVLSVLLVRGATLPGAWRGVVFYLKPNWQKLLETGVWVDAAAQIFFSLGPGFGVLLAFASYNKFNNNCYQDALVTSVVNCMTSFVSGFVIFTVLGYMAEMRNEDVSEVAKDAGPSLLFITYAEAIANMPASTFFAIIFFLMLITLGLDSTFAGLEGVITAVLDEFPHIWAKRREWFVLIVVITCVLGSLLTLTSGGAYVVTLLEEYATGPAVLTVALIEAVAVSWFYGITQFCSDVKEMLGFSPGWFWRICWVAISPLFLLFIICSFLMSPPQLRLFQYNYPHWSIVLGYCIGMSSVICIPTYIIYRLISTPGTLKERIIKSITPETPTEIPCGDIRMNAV
T3 sequence (Q60492 whole entry): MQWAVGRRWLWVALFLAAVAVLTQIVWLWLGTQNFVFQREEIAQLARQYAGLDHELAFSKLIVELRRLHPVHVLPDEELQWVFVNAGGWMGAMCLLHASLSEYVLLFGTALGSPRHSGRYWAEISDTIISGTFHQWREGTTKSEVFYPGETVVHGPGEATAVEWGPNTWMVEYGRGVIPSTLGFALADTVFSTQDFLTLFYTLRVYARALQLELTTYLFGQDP
T2 sequence (P23977 whole entry): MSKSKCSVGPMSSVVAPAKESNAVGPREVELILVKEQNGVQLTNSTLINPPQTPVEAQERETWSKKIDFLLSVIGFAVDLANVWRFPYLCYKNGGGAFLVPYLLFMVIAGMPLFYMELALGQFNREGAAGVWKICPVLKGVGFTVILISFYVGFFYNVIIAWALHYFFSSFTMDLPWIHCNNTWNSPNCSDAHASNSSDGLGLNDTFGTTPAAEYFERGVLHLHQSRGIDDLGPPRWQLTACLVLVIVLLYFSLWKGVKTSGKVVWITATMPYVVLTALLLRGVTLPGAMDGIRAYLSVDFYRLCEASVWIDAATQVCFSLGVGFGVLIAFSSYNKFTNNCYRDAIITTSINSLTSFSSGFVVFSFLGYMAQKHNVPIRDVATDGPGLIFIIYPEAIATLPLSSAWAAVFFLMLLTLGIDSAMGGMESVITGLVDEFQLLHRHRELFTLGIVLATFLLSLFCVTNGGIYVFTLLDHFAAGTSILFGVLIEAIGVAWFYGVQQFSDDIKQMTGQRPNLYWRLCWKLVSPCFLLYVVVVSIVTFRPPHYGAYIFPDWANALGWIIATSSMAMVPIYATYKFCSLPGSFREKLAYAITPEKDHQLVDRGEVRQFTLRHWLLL

SMILES	Ki [1] [nM]	Ki [2, 5] [nM]	SERT/DAT [2]	Kd [3] [nM]	σ1/DAT [3]	σ1/SERT [3]	Phase I in Liver Microsomes, Negative Control ([4]; 0 min) [%]	Phase I in Liver Microsomes, Rat ([4]; 0 min) [%]	Phase I in Liver Microsomes, Negative Control ([4]; 30 min) [%]	Phase I in Liver Microsomes, Rat ([4]; 30 min) [%]	Phase I in Liver Microsomes, Negative Control ([4]; 60 min) [%]	Phase I in Liver Microsomes, Rat ([4]; 60 min) [%]	Ki [2] [nM]	stability to Phase I metabolism (in words) [4]
Cl.O=C(c1ccc(F)cc1)N1CCC(NCC[S+]([O-])C(c2ccc(F)cc2)c2ccc(F)cc2)CC1 (stereo not drawn) [JBG02-056, (4-((2-((Bis(4-fluorophenyl)methyl)sulfinyl)ethyl)amino)piperidin-1-yl)(4-fluorophenyl)methanone]	4620 ± 379	77.2 ± 4.54	59.84	1320 ± 36.5	17.10	0.29	100	100	97	100	91	79	–	–
O=C(c1ccc(F)cc1)N1CCC(NCCSC(c2ccc(F)cc2)c2ccc(F)cc2)CC1 [JBG02-028, (4-((2-((Bis(4-fluorophenyl)methyl)thio)ethyl)amino)piperidin-1-yl)(4-fluorophenyl)methanone]	485 ± 32	–	66.99	–	4.43	0.066	100	100	–	40	101	24	7.24 ± 0.78	susceptibility
Cl.Cl.OC(CNC1CCN(CCSC(c2ccc(F)cc2)c2ccc(F)cc2)CC1)Cc1ccccc1 (stereo not drawn) [JBG01-061, 1-((1-(2-((Bis(4-fluorophenyl)methyl)thio)ethyl)piperidin-4-yl)amino)-3-phenylpropan-2-ol]	66.3 ± 2.81	47.7 ± 2.62	1.39	–	1.84	1.33	100	100	–	83	109	69	–	–
C[C@@H]1CN(CC[S+]([O-])C(c2ccc(F)cc2)c2ccc(F)cc2)C[C@H](C)N1CC(O)Cc1ccccc1 (stereo partly drawn) [RDS04-011, 1-((2S,6R)-4-(2-((Bis(4-fluorophenyl)methyl)sulfinyl)ethyl)-2,6-dimethylpiperazin-1-yl)-3-phenylpropan-2-ol]	2560 ± 181	6.78 ± 2.97	377.58	–	11.12	0.029	100	100	132	58	106	26	–	susceptibility
OC(CN1CCC2(CCN(CCSC(c3ccc(F)cc3)c3ccc(F)cc3)CC2)C1)c1ccccc1 (stereo not drawn) [RDS04-002]	124 ± 38.2	125 ± 9.7	0.99	–	0.36	0.37	100	100	128	100	125	100	–	–
CC(O)CN1[C@H](C)CN(CCSC(c2ccc(F)cc2)c2ccc(F)cc2)C[C@@H]1C (stereo partly drawn) [RDS03-094, 1-((2S,6R)-4-(2-((Bis(4-fluorophenyl)methyl)thio)ethyl)-2,6-dimethylpiperazin-1-yl)propan-2-ol]	14800 ± 2260	–	629.79	–	0.24	0.00038	100	100	106	99	109	68	23.5 ± 2.12	moderate stability
[O-][S+](CCNC1CCN(CC(O)Cc2ccccc2)CC1)C(c1ccc(F)cc1)c1ccc(F)cc1 (stereo not drawn) [JBG02-057, 1-(4-((2-((Bis(4-fluorophenyl)methyl)sulfinyl)ethyl)amino)piperidin-1-yl)-3-phenylpropan-2-ol]	595 ± 54.1	91.8 ± 21.3	6.48	346 ± 27.1	3.77	0.58	100	100	102	50	100	22	–	susceptibility
Fc1ccc(C(SCCNC2CCN(Cc3ccccc3)CC2)c2ccc(F)cc2)cc1 [JBG01-052, 1-Benzyl-N-(2-((bis(4-fluorophenyl)methyl)thio)ethyl)piperidin-4-amine]	407 ± 57.9	32.9 ± 5.86	12.37	3.97 ± 0.767	0.12	0.0098	–	–	–	–	–	–	–	–
CC(O)CN1CCC2(CCN(CC[S+]([O-])C(c3ccc(F)cc3)c3ccc(F)cc3)CC2)C1 (stereo not drawn) [RDS04-014]	617 ± 54.8	449 ± 120	1.37	–	0.14	0.11	–	–	–	–	–	–	–	–
CC(C)(C)CN1CCC(NCCSC(c2ccc(F)cc2)c2ccc(F)cc2)CC1 [JBG02-066, N-(2-((Bis(4-fluorophenyl)methyl)thio)ethyl)-1-neopentylpiperidin-4-amine]	947 ± 101	279 ± 39.4	3.39	–	1.13	–	–	–	–	–	–	–	–	–
Fc1ccc(C(SCCNC2CCN(CC3CC3)CC2)c2ccc(F)cc2)cc1 [JBG02-080, N-(2-((bis(4-fluorophenyl)methyl)thio)ethyl)-1-(cyclopropylmethyl)piperidin-4-amine]	1600 ± 164	407 ± 65	3.93	–	0.66	–	–	–	–	–	–	–	–	–
Cl.Cl.Fc1ccc(C(SCCN2CCC(NCc3ccc(Cl)cc3)CC2)c2ccc(F)cc2)cc1 [JBG01-086, 1-(2-((Bis(4-fluorophenyl)methyl)thio)ethyl)-N-(4-chlorobenzyl)piperidin-4-amine]	395 ± 56.6	86.5 ± 35.6	4.57	–	0.72	0.16	–	–	–	–	–	–	–	–
